# Assay results reported in US20030203969A1, “Pharmaceutically active aromatic guanylhydrazones” (priority 2000, published 2003).
# Columns and labels:
# [1] = tested on: T-cell-tropic HIV-1NL4/3 strain; assay: Inhibition of T-cell-tropic HIV-1 NL4/3 replication in de novo infected Jurkat cells (p24 antigen); format: cell-based; conditions: d10
# Description: HIV replication was measured either by p24 HIV Antigen Capture Assay Kit (ELISA; HIVAG-1 Monoclonal kit BIA011; Abbott) following the manufacturer's recommendation, or by using the Quantiplex HIV-1 RNA 3.0 Assay (bDNA) system (Chiron Diagnostics). The latter assay is a signal amplification nucleic acid probe assay (employing a sandwich nucleic acid hybridization procedure) for direct quantitation of HIV RNA in human plasma. There, in brief, HIV-1 is first concentrated from plasma by centrifugation. After release of genomic HIV-1 RNA from the virions, the RNA is captured to a microwell by a set of specific, synthetic oligonucleotide capture probes. A set of target probes hybridize to both the viral RNA and the pre-amplifier probes. The capture probes, comprised of 17 individual capture extenders, and the target probes, comprised of 81 individual target extenders, bind to different regions of the pol gene of the viral RNA. The amplifier probe hybridizes to the pre-amplifier forming a branched DNA (bDNA) complex. Then, multiple copies of an alkaline phosphatase labeled probe are hybridized to this immobilized bDNA complex. Detection is achieved by incubating the entire complex with a chemoluminescent substrate. Light emission is directly proportional to the amount of HIV-1 RNA present in each sample, and results are recorded as relative light units by an appropriate analyzer.
# Jurkat cells (species: human T-cell leukemia; special characteristics: cells are permissive for growth of T-cell tropic HIV strains; source:ATCC Cat.No. TIB 152) or PM1 cells (species: clonal derivative of human HUT 78 cells; special characteristics: cells are permissive for growth of macrophage-tropic and T-cell tropic HIV strains; source: Dr. Marvin Reitz, courtesy of the NIH AIDS Research and Reference Reagent Program Cat.No. 3038) were stimulated with Phytohemagglutinin (PHA-P, Product No. L9132 from Sigma) in a concentration of 2 μg/ml (1.5×10^6 cells/ml) and Hexadimethrine Bromide (Polybrene, Product No. H9268 from Sigma) in a concentration of 2 μg/ml (1.5×10^6 cells/ml) in RPMI 1640 medium containing 10% fetal calf serum (FCS, Pansystems GmbH) and antibiotics for 3 days.
# For HIV-1 infection, 5×10^7 cells were resuspended in 500 μl culture medium without test drugs and incubated in a 50 ml blue-cap-tube at 37° C. for 5 hrs with HIV-1 high titer viral stocks. Jurkat cells were infected with the T-cell tropic strain HIV-1 NL4-3, PM1 cells with the macrophage tropic strain HIV-1 Ba-L (both from the NIH AIDS Research and Reference Reagent Program). After infection, cells were washed twice with PBS without Ca^2+ and Mg^2+ to avoid false positive p24 antigen determination. Cells were resuspended, and identical aliquots (1×10^6/ml) of infected cells were further cultured in 10 ml medium with test drugs at various concentrations, or in medium with DMSO as control for calculation of the inhibition of virus replication (in %].
# Culture medium was changed and cells were split at days 3 and 7 of the experiments. Viability of the cells (Trypan-blue staining), cell counts and p24 antigen levels were determined at days 3, 7 and 10 of the experiments. No significant differences in cell viability were observed (˜85-90% living cells).
# At day 10 of infection, the HIV strains replicated vigorously in untreated cultures. Numbers describe percent inhibition of HIV replication as compared to control experiments.
# PI-resistant HIV-1 = assay: Inhibition of multiple anti-retroviral drug resistant HIV-1 strains: PI-resistant; format: cell-based
# Description: In addition, various different “types” of multiple anti-retroviral drug resistant HIV-1 strains were also tested: […]
# HHV8 = assay: HHV-8 replication in TPA-induced BCBL-1 cells (TaqMan PCR); format: cell-based, Human herpesvirus 8
# Description: The human BCBL-1 cell line is available through the AIDS Reference and Reagent Program (Cat.No. 3233). This cell line was derived from a body cavity-based lymphoma latently infected with HHV-8. Culturing these cells in the presence of phorbol ester induces a lytic infection cycle, resulting in the release of viral particles into the medium. Compound efficacy in this proposed assay is determined using TaqMan PCR technology, and compound toxicity is measured by addition of Promega's Cell Titer Aqueous One Solution (metabolic dye).
# 7. BCBL-1 cells will be counted by the trypan blue dye exclusion method, and the cell count/ml will be determined. Cells will be pelleted by centrifugation and washed once with PBS to minimize the basal level of virus released from untreated cells which spontaneously enter the lytic cycle and release virus.
# 8. Cells will be resuspended in fresh media and adjusted to the appropriate cell density. Cells will then be plated in the interior wells of 96-well round-bottom microtiter plates in a volume of 50 μl per well.
# 9. […]
# 11. A standard curve prepared from known copy numbers of DNA isolated from BCBL-1 cells and amplified will be run with each plate in order to quantitate the DNA copy number in each original sample. The efficacy of the compound will be determined by comparing DNA copy numbers from test wells with those of control wells.
smiles,measurement,setting,value
"CC(=NNC(=N)N)c1cc(NC(=O)CCCCCCCCC(=O)Nc2cc(C(C)=NNC(=N)N)cc(C(C)=NNC(=N)N)c2)cc(C(C)=NNC(=N)N)c1 [Compound 4, N,N′-bis (3,5-diacetylphenyl) decane diamide tetrakis (amidinohydrazone)]",percent inhibition of HIV replication as compared to control,"[1]; HIV-1 NL4/3, 0.5 μM",31%
same,percent inhibition of HIV replication as compared to control,"[1]; HIV-1 NL4/3, 1.0 μM",85%
same,[%] inhibition of virus replication,"PI-resistant HIV-1; PI-resistant HIV-1, 0.5 μM",50%
same,[%] inhibition of virus replication,"PI-resistant HIV-1; PI-resistant HIV-1, 1.0 μM",95%
same,Comments,"HHV8; HHV8, BCBL-1 cells",Active
same,IC50,HHV8; chronically HHV8-infected BCBL-1 cells,2.3 µM
